Several values for one entry are separate records, joined by “and”; a condition that tells them apart may be missing. Equal entries are not always repeated. Where two headings read alike, the source gives them in different places.

Assay in all cases: MTT assay for 7-day toxicity assay
What all share (assay type): cell-based

For assay [1], the system named is Glioma SNB19M (MGMT+). As to conditions: Glioma SNB19M (MGMT+). How it is done:
(§1) The cell culture techniques were carried out in a Class II microbiological safety cabinet which was swabbed with 70% IMS in distilled water before each use. […] MRC-5 cells were cultured in EMEM. Cells were grown in a humidified incubator containing 5% CO2 at 37° C. Cells were sub-cultured when growth exceeded approximately 80% confluence, normally twice weekly. The medium was aspirated from the flask and approximately 0.8 mL trypsin-EDTA 1× solution added. The cells were re-incubated at 37° C. until they visibly detached from the flask. The cell suspension was then re-suspended in 5 mL medium and 0.5-1 mL of the cell suspension was transferred to a new flask (25 cm^2) with 7 mL culture medium. The cells were further incubated at 37° C. incubator. Cells were disposed after passage nearly 30 times in order to minimize phenotypic drift. New batches of cells were taken from liquid nitrogen storage by thawing rapidly (37° C. water bath) and re-suspension in a 25 cm^2 flask with 10 mL of culture medium. Two passages were allowed to resume normal growth. For long-term maintenance, viable cells at 60-80% confluence were detached by minimum amount of trypsin/EDTA and re-suspended in sterile filtered freezing medium (95% FBS, 5% DMSO), transferred to sterile cryogenic vials, and frozen overnight at −20° C. followed by −80° C. for 1-2 days and stored in liquid nitrogen for long term storage.
(§2) Most test compounds, including temozolomide, were prepared as stock solution (100 mM) in DMSO and stored at −20° C. for not more than 6 months.
(§3) Glioma cell lines, SNB19 and U373, both MGMT transfected (i.e., SNB19M and U373M) and vector controls (i.e., SNB19V and U373V); colorectal carcinoma cell lines, HCT116, HT29, and DLD1; melanoma cell line, SKMEL-28; breast cell line, MCF-7; and normal human fetal lung fibroblast cell line, MRC-5; were harvested at 60-80% confluence—during the logarithmic phase of growth.
(§4) Following harvesting, cells in suspension were gently syringed through a 23 gauge needle to obtain a near-single cell suspension. The desired cell seeding densities were used and added into 96-well plates in 180 μL culture medium if only one test compound was to be added, or 160 μL if two test compounds were to be added in combination, which were allowed to attach at 37° C. (5% CO2) overnight. For the 7 day assay, the cell seeding density for different cell lines was as follows: SNB19V, SNB19M: 650 cells/well; U373V, U373M: 650 cells/well; SNB19VR, U373VR: 650 cells/well; HCT116, DLD-1, SKMEL-28, MRC-5, MCF-7: 400 cells/well.
(§5) The two peripheral lanes were used as blank wells (cell free) and filled with 200 μL of medium in order to minimise medium evaporation from the plate. A separate time zero (T0) plate was set up alongside other plates. Serial dilutions in tissue culture medium of a 100 mM stock of test compound in DMSO were prepared immediately before each assay to ten times the final concentrations required, and then 20 μL was added to each well (200 μL total media per well) to achieve final concentrations of 0.5 μM, 1 μM, 5 μM, 10 μM, 50 μM, 100 μM, 500 μM, and 1000 μM. A minimum of four wells received the same test compound concentration. To control wells, including those in the T0 plate, 20 μL of medium was added. […] A separate plate treated in the same way, but free of test compound, was used as a measure of cell viability at the time of drug addition (day 0).
(§6) After incubation at 37° C., 5% CO2 for 7 days (or immediately for the day 0 plate), cell viability was quantified using the MTT assay. 50 μL of sterile filtered MIT (3-(4,5-dimethylthiazol-2-yl)-2,5-diphenyltetrazolium bromide) (2 mg/mL in phosphate buffered saline) were added to each well (final concentration 0.4 mg/mL) and the plates were re-incubated for 4 hours to allow metabolic conversion of MTT by dehydrogenases in viable cells to insoluble formazan crystals.
(§7) The intensity of absorbance is directly proportional to cell viability.

Assay [2] deals with Glioma U373V (MGMT low). As to conditions: Glioma U373V (MGMT low). The procedure: as §1, §2, §3, §4, §5, §6, §7
Assay [3] relates to Glioma SNB19V (MGMT−). As to conditions: Glioma SNB19V (MGMT−). How it is done: as §1, §2, §3, §4, §5, §6, §7
The test system of assay [4] is Glioma U373M (MGMT+). The following applies: Glioma U373M (MGMT+). How it is done:
as §1, §2, §3, §4, §5, §6, §7

The mark [5] stands for this setting: 168 h, 7-day MTT, single determinations, read-out: GI50.
[6] abbreviates: 7-day MTT, single determinations, read-out: GI50.

As to `C[Si](C)(C)C#CCn1nnc2c(C(N)=O)ncn2c1=O` [EE-003, 4-Oxo-3-(3-trimethylsilanyl-prop-2-ynyl)-3,4-dihydro-imidazo[5,1-d][1,2,3,5]tetrazine-8-carboxylic acid amide], the GI50 in assay [1] (setting [5]) was found to be 42.9 µM; in assay [1] (setting [6]), 35.2 µM; in assay [2] (setting [5]), 26.8 µM; in assay [2] (setting [6]) it was 33.6 µM; in assay [3] (setting [5]), 41.7 µM; in assay [3] (setting [6]) it was 36.6 µM. Further, the GI50 came out at 31.5 µM in assay [4] (setting [5]) and 30 µM in assay [4] (setting [6]).

Turning to `NC(=O)c1ncn2c(=O)n(C3CCCC3)nnc12` [FF-001, 3-Cyclopentyl-8-carbamoylimidazotetrazin-4-one], the GI50 in assay [1] (setting [5]) was 292 µM; in assay [1] (setting [6]) it was 238 µM; in assay [2] (setting [5]), 169 µM; in assay [2] (setting [6]), 163 µM; in assay [3] (setting [5]), 318 µM; in assay [3] (setting [6]), 266 µM. Besides, the 50% growth inhibitory concentration (GI50) in assay [4] (setting [5]) amounted to 228 µM; in assay [4] (setting [6]) it was 204 µM.

For `NC(=O)c1ncn2c(=O)n(C3CC3)nnc12` [FF-002, 3-Cyclopropyl-8-carbamoylimidazotetrazin-4-one], the GI50 was 593 µM in assay [1] (setting [5]); 637 µM and 418 µM in assay [1] (setting [6]); 293 µM in assay [2] (setting [5]); 386 µM and 241 µM in assay [2] (setting [6]); 516 µM in assay [3] (setting [5]); 376 µM and 392 µM in assay [3] (setting [6]). In addition, the GI50 in assay [4] (setting [5]) was 369 µM; in assay [4] (setting [6]), 346 µM and 367 µM.

On to `NC(=O)c1ncn2c(=O)n(CC3CCCC3)nnc12` [GG-002, 3-(Cyclopentyl)methyl-8-carbamoylimidazotetrazin-4-one], for which the GI50 was 796 µM in assay [1] (setting [5]); 602 µM in assay [1] (setting [6]); 790 µM in assay [2] (setting [5]); over 1000 µM in assay [2] (setting [6]); 888 µM in assay [3] (setting [5]); 751 µM in assay [3] (setting [6]). The values for the GI50 in assay [4] (setting [5]) and in assay [4] (setting [6]) were 642 µM and 728 µM, respectively.

Turning to `CNC(=O)Cn1nnc2c(C(N)=O)ncn2c1=O` [JJ-002, N-Methyl (8-Carbamoyl-oxoimidazo[5,1-d][1,2,3,5]tetrazin-3(4H)-yl)ethanamide], the GI50 in assay [1] (setting [5]) was determined as 258 µM; in assay [1] (setting [6]) it was 235 µM; in assay [2] (setting [5]), 234 µM; in assay [2] (setting [6]), 287 µM; in assay [3] (setting [5]), 73.5 µM; in assay [3] (setting [6]), 58.1 µM. In addition, the GI50 in assay [4] (setting [5]) was 306 µM; in assay [4] (setting [6]), 221 µM.

As for `CN(C)C(=O)Cn1nnc2c(C(N)=O)ncn2c1=O` [JJ-003, N,N-Dimethyl (8-Carbamoyl-oxoimidazo[5,1-d][1,2,3,5]tetrazin-3(4H)-yl)ethanamide], the GI50 came out at 78.6 µM in assay [1] (setting [5]); 68.1 µM in assay [1] (setting [6]); 92.4 µM in assay [2] (setting [5]); 77.8 µM in assay [2] (setting [6]); 73.6 µM in assay [3] (setting [5]); 61.8 µM in assay [3] (setting [6]). Further, the GI50 in assay [4] (setting [5]) came to 98.6 µM; in assay [4] (setting [6]), 86.4 µM.

Turning to `NC(=O)c1ncn2c(=O)n(CC(=O)N3CCOCC3)nnc12` [JJ-005, N-(8-Carbamoyl-oxoimidazo[5,1-d][1,2,3,5]tetrazin-3(4H)-yl)ethanoyl morpholine], the GI50 in assay [1] (setting [5]) came to 119 µM; in assay [1] (setting [6]), 84.9 µM; in assay [2] (setting [5]) it was 195 µM; in assay [2] (setting [6]), 291 µM; in assay [3] (setting [5]), 70.3 µM; in assay [3] (setting [6]) it was 52.4 µM. Besides, the GI50 in assay [4] (setting [5]) is 90.4 µM; in assay [4] (setting [6]) it was 173 µM.

Take `CSCCn1nnc2c(C(N)=O)ncn2c1=O` [KK-002, 3-(2-Methylsulfanyl-ethyl)-4-oxo-3,4-dihydro-imidazo[5,1-d][1,2,3,5]tetrazine-8-carboxylic acid amide]: the GI50 in assay [1] (setting [5]) came out at 304 µM; in assay [1] (setting [6]), 259 µM; in assay [2] (setting [5]), 152 µM; in assay [2] (setting [6]), 300 µM; in assay [3] (setting [5]) it was 288 µM; in assay [3] (setting [6]) it was 321 µM. For the same compound, the GI50 is 229 µM in assay [4] (setting [5]) and 286 µM in assay [4] (setting [6]).

For the compound `NC(=O)c1ncn2c(=O)n(CCC(=O)O)nnc12` [LL-001, 3-(8-Carbamoyl-oxoimidazo[5,1-d][1,2,3,5]tetrazin-3(4H)-yl)propanoic acid], the GI50 stood at 397 µM in assay [1] (setting [5]); 232 µM in assay [1] (setting [6]); 234 µM in assay [2] (setting [5]); 248 µM in assay [2] (setting [6]); 356 µM in assay [3] (setting [5]); 355 µM in assay [3] (setting [6]). Further, the GI50 in assay [4] (setting [5]) was determined as 236 µM; in assay [4] (setting [6]), 281 µM.

On to `CC(=O)OCn1nnc2c(C(N)=O)ncn2c1=O` [LL-005], for which the GI50 in assay [1] (setting [5]) was 46 µM; in assay [1] (setting [6]), 34.7 µM; in assay [2] (setting [5]), 15.7 µM; in assay [2] (setting [6]) it was 8 µM; in assay [3] (setting [5]), 56.6 µM; in assay [3] (setting [6]), 40.1 µM. Moreover, the GI50 in assay [4] (setting [5]) was determined as 45.6 µM; in assay [4] (setting [6]), 33.3 µM.

For the compound `CC(C)(C)[Si](C)(C)OCCn1nnc2c(C(N)=O)ncn2c1=O` [NN-001, 3-(2-(tert-Butyldimethylsilyloxy)ethyl)-4-oxo-3,4-dihydroimidazo[5,1-d][1,2,3,5]tetrazine-8-carboxamide], the GI50 in assay [1] is 182 µM and 263 µM; in assay [2], 172 µM and 229 µM; in assay [3] it was 128 µM and 97 µM; in assay [4], 98.2 µM and 68.3 µM.

For the compound `NC(=O)c1ncn2c(=O)n(CCO)nnc12` [NN-002, 3-(2-Hydroxyethyl)-4-oxo-3,4-dihydroimidazo[5,1-d][1,2,3,5]tetrazine-8-carboxamide], the GI50 was 396 µM and 437 µM in assay [1]; 209 µM and 368 µM in assay [2]; 200 µM and 210 µM in assay [3]; 248 µM and 398 µM in assay [4].

For `CC(C)n1nnc2c(C(N)=O)ncn2c1=O` [PP-001, 3-Isopropyl-8-carbamoylimidazotetrazin-4-one], the GI50 in assay [1] (read-out: GI50) is > 1000 µM and 753 µM; in assay [2] (read-out: GI50), 387 µM and 580 µM; in assay [3] (read-out: GI50) it was over 1000 µM; in assay [4] (read-out: GI50), 427 µM and 657 µM.

The values above are taken from patent US8450479B2, “3-substituted-4-oxo-3,4-dihydro-imidazo[5,1-d][1,2,3,5-tetrazine-8-carboxylic acid amides and their use” (Pharminox Limited, priority 2007, dated 2013).
